The text below walks through data of patent US8163756B2 (priority 2004, dated 2012).

pIC50: −log10 of the molar value.

Chain of B-Raf(V599E) kinase (P15056 with tags, fused parts or gaps V600E): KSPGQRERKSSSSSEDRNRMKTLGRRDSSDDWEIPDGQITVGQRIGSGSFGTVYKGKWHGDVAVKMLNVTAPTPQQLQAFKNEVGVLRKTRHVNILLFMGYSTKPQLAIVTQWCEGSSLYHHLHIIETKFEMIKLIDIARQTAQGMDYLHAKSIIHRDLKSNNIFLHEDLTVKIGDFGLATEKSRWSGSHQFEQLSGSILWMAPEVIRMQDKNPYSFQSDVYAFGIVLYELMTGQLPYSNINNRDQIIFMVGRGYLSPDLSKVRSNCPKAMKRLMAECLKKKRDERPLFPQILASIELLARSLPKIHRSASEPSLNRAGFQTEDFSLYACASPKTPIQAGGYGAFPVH

The first assay has as its target B-Raf(V599E) kinase (Homo sapiens, UniProt P15056, V600E). Briefly: B-Raf(V599E) kinase assay B1 (construct 1, MEK1 substrate, coupled spectrophotometric). It is filed as biochemical.
Conditions: not given
Here is the method: The test compounds were incubated with the reaction mixtureat 30° C. for 2 h. […] The reaction rate was calculated using the […] time frame. […] IC50 values were calculated from a series of percent inhibition values determined at a range of inhibitor concentrations using software routines as implemented in the GraphPad Prism software package.
`CC(C)(C)c1cc(NC(=O)Nc2ccc(Cl)cc2)n(-c2ccc3c(c2)C(=O)NCC3)n1` [Example 309, 1-[3-t-butyl-1-(1-oxo-1,2,3,4-tetrahydroiso-quinolin-7-yl)-1H-pyrazol-5-yl]-3-(4-chlorophenyl)urea] gave a pIC50 of 6.60.

`CC(C)NC(=O)Cc1cccc(-n2nc(C(C)(C)C)cc2NC(=O)Nc2cccc(Cl)c2Cl)c1` [Example 441, 1-(3-t-butyl-1-(3-(2-(isopropylamino)-2-oxoethyl)phenyl)-1H-pyrazol-5-yl)-3-(2,3-dichlorophenyl)urea] showed a pIC50 of 8.19.

Compound `CC(C)(C)c1cc(NC(=O)Nc2cc(F)c(F)cc2F)n(-c2cccc(CC(=O)O)c2)n1` [Example 370, 2-(3-(3-t-butyl-5-(3-(2,4,5-trifluorophenyl)-ureido)-1H-pyrazol-1-yl)phenyl)acetic acid] showed a pIC50 of 8.10.

`CC(C)(C)c1cc(NC(=O)Nc2ccccc2F)n(-c2cc(CO)c3ccccc3c2)n1` [Example 291, 1-(3-t-butyl-1-(4-(hydroxymethyl)naphthalen-2-yl)-1H-pyrazol-5-yl)-3-(2-fluorophenyl)urea] gave a pIC50 of 8.28.

`CC(C)(C)c1cc(NC(=O)Nc2cccc(F)c2F)n(-c2ccc3c(c2)CCC(=O)N3)n1` [Example 320, 1-(3-t-butyl-1-(2-oxo-1,2,3,4-tetrahydro-quinolin-6-yl)-1H-pyrazol-5-yl)-3-(2,3-difluorophenyl)urea] gave a pIC50 of 8.34.

With `CCOC(=O)Cc1cccc(-n2nc(C(C)(C)C)cc2NC(=O)Nc2ccc3c(c2)OCO3)c1` [Example 247, ethyl 2-(3-{5-[3-(benzo[d][1,3]dioxol-5-yl)ureido]-3-t-butyl-1H-pyrazol-1-yl}phenyl)-acetate], the pIC50 is 7.15.

`CC(C)(C)c1cc(NC(=O)Nc2cccc(Cl)c2Cl)n(-c2ccc(C(=O)O)cc2)n1` [Example 244, 4-{3-t-butyl-5-[3-(2,3-dichlorophenyl)ureido]-1H-pyrazol-1-yl}benzoic acid] had a pIC50 of 7.42.

`C[C@H](NC(=O)Nc1cc(C(C)(C)C)nn1-c1cccc(CC(N)=O)c1)c1ccccc1` [Example 392, 1-{1-[3-(2-amino-2-oxoethyl)phenyl]-3-t-butyl-1H-pyrazol-5-yl}-3-((S)-1-phenylethyl)urea]: the pIC50 was 6.66.

Consider `CC(C)(C)c1cc(NC(=O)Nc2cccc(Oc3ccccc3)c2)n(-c2ccc3c(c2)CCC(=O)N3)n1` [Example 325, 1-(3-t-butyl-1-(2-oxo-1,2,3,4-tetrahydro-quinolin-6-yl)-1H-pyrazol-5-yl)-3-(3-phenoxyphenyl)urea], for which the pIC50 was 8.35.

As to `CC(C)(C)c1cc(NC(=O)Nc2ccc3c(c2)OCO3)n(-c2cccc(CC(=O)O)c2)n1` [Example 372, 2-(3-{5-[3-(benzo[1,3]dioxol-5-yl)ureido]-3-t-butyl-1H-pyrazol-1-yl}phenyl)acetic acid], the pIC50 is 7.57.

`CCOC(=O)c1ccc(-n2nc(C(C)(C)C)cc2NC(=O)Nc2cccc(Cl)c2Cl)cc1` [Example 243, ethyl 4-{3-t-butyl-5-[3-(2,3-dichlorophenyl)ureido]-1H-pyrazol-1-yl}benzoate] gave a pIC50 of 7.39.

The target in a further assay is phosphorylated p-38-alpha kinase (Homo sapiens, UniProt Q16539). As to the kind of experiment: P-38 alpha kinase assay P1 (coupled spectrophotometric, 2 h pre-incubation). It is filed as biochemical. To be noted: method P1 (2 h pre-incubation); read-out: P-38 Data.
Chain of phosphorylated p-38-alpha kinase (Q16539 1-360 isoform Q16539-2): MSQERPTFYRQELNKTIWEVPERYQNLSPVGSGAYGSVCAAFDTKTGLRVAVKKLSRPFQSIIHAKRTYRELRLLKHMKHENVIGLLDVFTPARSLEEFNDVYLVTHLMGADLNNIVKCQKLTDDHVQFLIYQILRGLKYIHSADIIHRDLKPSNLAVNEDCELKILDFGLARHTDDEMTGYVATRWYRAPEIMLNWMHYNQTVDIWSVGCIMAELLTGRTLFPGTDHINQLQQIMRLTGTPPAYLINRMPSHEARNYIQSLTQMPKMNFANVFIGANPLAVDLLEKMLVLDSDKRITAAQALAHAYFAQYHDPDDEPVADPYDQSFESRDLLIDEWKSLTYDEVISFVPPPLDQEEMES
As for `O=C(Cc1ccc(-n2nc(-c3cccs3)cc2NC(=O)N[C@H]2CCc3ccccc32)cc1)NCCO` [Example 490, 1-((S)-2,3-dihydro-1H-inden-1-yl)-3-(1-(4-(2-(2-hydroxyethylamino)-2-oxoethyl)phenyl)-3-(thiophen-2-yl)-1H-pyrazol-5-yl)urea], the pIC50 is 7.28.

As to `O=C(Cc1cccc(-n2nc(-c3cccs3)cc2NC(=O)Nc2cccc3ccccc23)c1)NCCO` [Example 428, 1-(1-(3-(2-(2-hydroxyethylamino)-2-oxoethyl)phenyl)-3-(thiophen-2-yl)-1H-pyrazol-5-yl)-3-(naphthalen-1-yl)urea], the pIC50 was 7.92.

Regarding `NC(=O)Cc1cccc(-n2nc(-c3ccccc3F)cc2NC(=O)N[C@H]2CCc3ccccc32)c1` [Example 411, 1-(1-(3-(2-amino-2-oxoethyl)phenyl)-3-(2-fluorophenyl)-1H-pyrazol-5-yl)-3-((S)-2,3-dihydro-1H-inden-1-yl)urea], the pIC50 was 7.43.

`O=C(O)Cc1cccc(-n2nc(-c3cccs3)cc2NC(=O)N[C@H]2CCc3ccccc32)c1` [Example 361, 2-(3-(5-(3-((S)-2,3-dihydro-1H-inden-1-yl)ureido)-3-(thiophen-2-yl)-1H-pyrazol-1-yl)phenyl)acetic acid]: the pIC50 was 7.52.

In the case of `O=C(Cc1cccc(-n2nc(-c3cccs3)cc2NC(=O)N[C@H]2CCc3ccccc32)c1)NCCO` [Example 416, 1-((S)-2,3-dihydro-1H-inden-1-yl)-3-(1-(3-(2-(2-hydroxyethylamino)-2-oxoethyl)phenyl)-3-(thiophen-2-yl)-1H-pyrazol-5-yl)urea], the pIC50 is 7.49.

Take `O=C(Cc1cccc(-n2nc(-c3ccccc3F)cc2NC(=O)Nc2cccc3ccccc23)c1)NCC(O)CO` (stereo not drawn) [Example 425, 1-(1-(3-(2-(2,3-dihydroxypropylamino)-2-oxoethyl)phenyl)-3-(2-fluorophenyl)-1H-pyrazol-5-yl)-3-(naphthalen-1-yl)urea]: the pIC50 is 7.54.

With `CN(C)[C@H]1CCN(C(=O)Cc2cccc(-n3nc(C4CCCC4)cc3NC(=O)Nc3cccc(Cl)c3Cl)c2)C1` [Example 419, 1-(3-cyclopentyl-1-(3-(2-((S)-3-(dimethylamino)pyrrolidin-1-yl)-2-oxoethyl)phenyl)-1H-pyrazol-5-yl)-3-(2,3-dichlorophenyl)urea], the pIC50 is 7.42.

As to `NC(=O)Cc1ccc(-n2nc(-c3cccs3)cc2NC(=O)N[C@H]2CCc3ccccc32)cc1` [Example 489, 1-(1-(4-(2-amino-2-oxoethyl)phenyl)-3-(thiophen-2-yl)-1H-pyrazol-5-yl)-3-((S)-2,3-dihydro-1H-inden-1-yl)urea], the pIC50 was 7.46.

For `O=C(O)Cc1cccc(-n2nc(-c3cccs3)cc2NC(=O)Nc2cccc3ccccc23)c1` [Example 364, 2-(3-(5-(3-(naphthalen-1-yl)ureido)-3-(thiophen-2-yl)-1H-pyrazol-1-yl)phenyl)acetic acid], the pIC50 was 7.89.

Regarding `O=C(O)Cc1cccc(-n2nc(-c3cccs3)cc2NC(=O)Nc2ccc(F)c(F)c2F)c1` [Example 365, 2-(3-(3-(thiophen-2-yl)-5-(3-(2,3,4-trifluorophenyl)-ureido)-1H-pyrazol-1-yl)phenyl)acetic acid], the pIC50 is 7.15.

Regarding `O=C(Cc1cccc(-n2nc(-c3ccccc3F)cc2NC(=O)N[C@H]2CCc3ccccc32)c1)NCC(O)CO` (stereo partly drawn) [Example 413, 1-((S)-2,3-dihydro-1H-inden-1-yl)-3-(1-(3-(2-(2,3-dihydroxypropylamino)-2-oxoethyl)phenyl)-3-(2-fluorophenyl)-1H-pyrazol-5-yl)urea], the pIC50 was 7.55.

On to `O=C(O)Cc1cccc(-n2nc(-c3ccccc3F)cc2NC(=O)Nc2ccc(F)c(F)c2F)c1` [Example 362, 2-(3-(3-(2-fluorophenyl)-5-(3-(2,3,4-trifluorophenyl)-ureido)-1H-pyrazol-1-yl)phenyl)acetic acid], for which the pIC50 is 7.42.

For the compound `NC(=O)Cc1cccc(-n2nc(-c3nccs3)cc2NC(=O)Nc2cccc(Cl)c2Cl)c1` [Example 410, 1-(1-(3-(2-amino-2-oxoethyl)phenyl)-3-(thiazol-2-yl)-1H-pyrazol-5-yl)-3-(2,3-dichlorophenyl)urea], the pIC50 is 7.06.
